Drawing on patent US20240124442A1, “TRICYCLIC-AMIDO-BICYCLIC PRMT5 INHIBITORS” (AMGEN INC., priority 2021, published 2024), this text covers IC50 for 18 molecules.

SMILES strings stand for the structures.

One test relates to HCT116 MTAP null cells. Put plainly: HCT116 MTAP null cell line proliferation / cell viability (CellTiter-Glo, 6 days). The conditions noted are these: 144 h; HCT116 MTAP null cells, 6 days treatment, CellTiter-Glo cell viability; read-out: HCT-116 MTAP null IC50. Format: cell-based. Summed up: (§1)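 CellTiter-Glo luminescence read after 6 days of compound exposure in parental and MTAP-null HCT116 cells grown in RPMI 1640/10% FBS. Dilution series: 1:3 steps, 8–9 points, top 1 or 10 μM; or 1:2 steps, 22 points, top 10 or 50 μM. IC50 = curve transit through 50% of control.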
For orientation: In ATP-based viability assays light output follows the ATP content of the culture.

Another test concerns HCT116 WT cells. The experiment in a line: HCT116 WT (parent) cell line proliferation / cell viability (CellTiter-Glo, 6 days). The format is cell-based. The conditions noted are these: Homo sapiens, HCT-116, 144 h, 6 days treatment. In a few lines:
as §1

One may read the IC50 as the concentration needed to halve the response being measured. Take `CCN(C(=O)c1ccc2nc(N)c3cnn(C)c3c2c1)[C@H]1COCc2nc(C(F)(F)F)ccc21` [Example 502, 4-amino-N-ethyl-1-methyl-N-((5R)-2-(trifluoromethyl)-5,8-dihydro-6H-pyrano[3,4-b]pyridin-5-yl)-1H-pyrazolo[4,3-c]quinoline-8-carboxamide]: the figures for the concentration for half-maximal inhibition (IC50) in the test with HCT116 MTAP null cells and in the test on HCT116 WT cells were 414 nM and 11800 nM, respectively.
On to `Cn1ncc2c(N)nc3ccc(C(=O)N(C4CC4)[C@@H]4COCc5nc(C(F)(F)F)ccc54)cc3c21` [Example 503, 4-amino-N-cyclopropyl-1-methyl-N-((5S)-2-(trifluoromethyl)-5,8-dihydro-6H-pyrano[3,4-b]pyridin-5-yl)-1H-pyrazolo[4,3-c]quinoline-8-carboxamide], for which the figures for the 50% inhibitory concentration (IC50) in the test on HCT116 MTAP null cells and in the test on HCT116 WT cells were 18 nM and 1260 nM, respectively.
In the same order, the values of `CC(C)CN(C(=O)c1ccc2nc(N)c3cnn(C)c3c2c1)[C@@H]1COCc2nc(C(F)(F)F)ccc21` [Example 504, 4-amino-1-methyl-N-(2-methylpropyl)-N-((5S)-2-(trifluoromethyl)-5,8-dihydro-6H-pyrano[3,4-b]pyridin-5-yl)-1H-pyrazolo[4,3-c]quinoline-8-carboxamide] are 4 nM and 144 nM.
In the case of `CC(C)CN(C(=O)c1ccc2nc(N)c3cnn(C)c3c2c1)[C@H]1COCc2nc(C(F)(F)F)ccc21` [Example 505, 4-amino-1-methyl-N-(2-methylpropyl)-N-((5R)-2-(trifluoromethyl)-5,8-dihydro-6H-pyrano[3,4-b]pyridin-5-yl)-1H-pyrazolo[4,3-c]quinoline-8-carboxamide], the values for the IC50 in the test on HCT116 MTAP null cells and with HCT116 WT cells were 244 nM and 12100 nM, respectively.
With `CN(C(=O)c1cc2c(cc1F)nc(N)c1cnn(C)c12)[C@@H]1COCc2cc(C(F)(F)F)ccc21` [Example 506, 4-amino-7-fluoro-N,1-dimethyl-N-((4S)-7-(trifluoromethyl)-3,4-dihydro-1H-2-benzopyran-4-yl)-1H-pyrazolo[4,3-c]quinoline-8-carboxamide], the concentration for half-maximal inhibition (IC50) with HCT116 MTAP null cells was 4 nM; in the test on HCT116 WT cells, 34 nM.
Take `CN(C(=O)c1cc2c(cc1F)nc(N)c1cnn(C)c12)[C@@H]1COCc2nc(C(F)(F)F)ccc21` [Example 507, 4-amino-7-fluoro-N,1-dimethyl-N-((5S)-2-(trifluoromethyl)-5,8-dihydro-6H-pyrano[3,4-b]pyridin-5-yl)-1H-pyrazolo[4,3-c]quinoline-8-carboxamide]: the half-inhibitory concentration (IC50) worked out at 8 nM in the test on HCT116 MTAP null cells and 162 nM in the test with HCT116 WT cells.
In the same order, the values of `CCN(C(=O)c1cc2c(cc1F)nc(N)c1cnn(C)c12)[C@@H]1COCc2nc(C(F)(F)F)ccc21` [Example 508, 4-amino-N-ethyl-7-fluoro-1-methyl-N-((5S)-2-(trifluoromethyl)-5,8-dihydro-6H-pyrano[3,4-b]pyridin-5-yl)-1H-pyrazolo[4,3-c]quinoline-8-carboxamide] are 5 nM and 43 nM.
In the same order, the values of `CN(C(=O)c1ccc2nc(N)c3c(cnn3C)c2c1)[C@@H]1COCc2cc(C#N)ccc21` [Example 509, 4-amino-N-((4S)-7-cyano-3,4-dihydro-1H-2-benzopyran-4-yl)-N,3-dimethyl-3H-pyrazolo[3,4-c]quinoline-8-carboxamide] are 107 nM and 8110 nM.
For `CN(C(=O)c1ccc2nc(N)c3c(cnn3C)c2c1)[C@@H]1COCc2cc(C(F)(F)F)ccc21` [Example 510, 4-amino-N,3-dimethyl-N-((4S)-7-(trifluoromethyl)-3,4-dihydro-1H-2-benzopyran-4-yl)-3H-pyrazolo[3,4-c]quinoline-8-carboxamide], in that order: 48 nM and 4590 nM.
Consider `CN(C(=O)c1ccc2nc(N)c3c(cnn3C)c2c1)[C@@H]1COCc2cc(C(F)(F)F)ncc21` [Example 511, 4-amino-N,3-dimethyl-N-((4S)-7-(trifluoromethyl)-3,4-dihydro-1H-pyrano[4,3-c]pyridin-4-yl)-3H-pyrazolo[3,4-c]quinoline-8-carboxamide], for which the results for the IC50 in the test on HCT116 MTAP null cells and in the test with HCT116 WT cells were 374 nM and 17400 nM, respectively.
For `CN(C(=O)c1ccc2nc(N)c3c(cnn3C)c2c1)[C@@H]1COCc2nc(C(F)(F)F)ccc21` [Example 512, 4-amino-N,3-dimethyl-N-((5S)-2-(trifluoromethyl)-5,8-dihydro-6H-pyrano[3,4-b]pyridin-5-yl)-3H-pyrazolo[3,4-c]quinoline-8-carboxamide], in that order: 123 nM and 11100 nM.
In the same order, the values of `COc1ccc2c(n1)COC[C@H]2N(C)C(=O)c1cc2c(cc1F)nc(N)c1c2cnn1C` [Example 513, 4-amino-7-fluoro-N-((5S)-2-methoxy-5,8-dihydro-6H-pyrano[3,4-b]pyridin-5-yl)-N,3-dimethyl-3H-pyrazolo[3,4-c]quinoline-8-carboxamide] are 168 nM and 10200 nM.
For the molecule `CN(C(=O)c1cc2c(cc1F)nc(N)c1c2cnn1C)[C@@H]1COCc2cc(C(F)(F)F)ccc21` [Example 514, 4-amino-7-fluoro-N,3-dimethyl-N-((4S)-7-(trifluoromethyl)-3,4-dihydro-1H-2-benzopyran-4-yl)-3H-pyrazolo[3,4-c]quinoline-8-carboxamide], the IC50 turned out to be 68 nM in the test on HCT116 MTAP null cells and 1520 nM with HCT116 WT cells.
In the same order, the values of `CN(C(=O)c1cc2c(cc1F)nc(N)c1c2cnn1C)[C@@H]1COCc2nc(C(F)(F)F)ccc21` [Example 515, 4-amino-7-fluoro-N,3-dimethyl-N-((5S)-2-(trifluoromethyl)-5,8-dihydro-6H-pyrano[3,4-b]pyridin-5-yl)-3H-pyrazolo[3,4-c]quinoline-8-carboxamide] are 37 nM and 3650 nM.
As to `Cn1ncc2c3cc(C(=O)N(C4CC4)[C@@H]4COCc5nc(C(F)(F)F)ccc54)c(F)cc3nc(N)c21` [Example 516, 4-amino-N-cyclopropyl-7-fluoro-3-methyl-N-((5S)-2-(trifluoromethyl)-5,8-dihydro-6H-pyrano[3,4-b]pyridin-5-yl)-3H-pyrazolo[3,4-c]quinoline-8-carboxamide], the half-maximal inhibitory concentration (IC50) was 105 nM in the test with HCT116 MTAP null cells and 6520 nM in the test with HCT116 WT cells.
For `CC(C)CN(C(=O)c1cc2c(cc1F)nc(N)c1c2cnn1C)[C@@H]1COCc2nc(C(F)(F)F)ccc21` [Example 517, 4-amino-7-fluoro-3-methyl-N-(2-methylpropyl)-N-((5S)-2-(trifluoromethyl)-5,8-dihydro-6H-pyrano[3,4-b]pyridin-5-yl)-3H-pyrazolo[3,4-c]quinoline-8-carboxamide], in that order: 18 nM and 342 nM.
For `CC(C)CN(C(=O)c1cc2c(cc1F)nc(N)c1c2cnn1C)[C@H]1COCc2nc(C(F)(F)F)ccc21` [Example 518, 4-amino-7-fluoro-3-methyl-N-(2-methylpropyl)-N-((5R)-2-(trifluoromethyl)-5,8-dihydro-6H-pyrano[3,4-b]pyridin-5-yl)-3H-pyrazolo[3,4-c]quinoline-8-carboxamide], in that order: 965 nM and 9330 nM.
In the case of `CN(C(=O)c1cc2c(cc1Cl)nc(N)c1c2cnn1C)[C@@H]1COCc2nc(C(F)(F)F)ccc21` [Example 519, 4-amino-7-chloro-N,3-dimethyl-N-((5S)-2-(trifluoromethyl)-5,8-dihydro-6H-pyrano[3,4-b]pyridin-5-yl)-3H-pyrazolo[3,4-c]quinoline-8-carboxamide], the figures for the IC50 with HCT116 MTAP null cells and with HCT116 WT cells were 27 nM and 1390 nM, respectively.
